Data set [1] concerns multiple myeloma cell line U266B1. The data set is described as follows: U266 Cell Viability Assay. It counts as cell-based, human. Conditions: Homo sapiens, U-266, 48 h, U266B1 cells, Celltiter-Glo. Put shortly: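 U266B1 multiple myeloma cells in RPMI 1640/10% FBS were treated with compound dilutions for 48 h at 37 °C, 5% CO2. Viability was measured by CellTiter-Glo luminescence; compounds drawn without stereochemistry were tested as stereoisomer mixtures.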
Background: In ATP-based viability assays light output follows the ATP content of the culture.

A short description of data set [2]: Liver Microsome Stability Assay (monkey). Particulars: monkey liver microsomes, with NADPH, 1.0 uM compound. (Liver microsomes are a subcellular fraction often used to study metabolism.)
Experimental: (§1) Stability of a compound was assessed in the presence of liver microsomes from various sources—mouse, rat, monkey and human liver microsomes. 1.0 uM compound, 0.4% DMSO in 0.1 M Potassium Phosphate with 1.0 mg/mL liver microsomes, were incubated at 37° C. with or without 1 mM NADPH. The samples were quenched at 0, and 30 minutes.
The nature of data set [3]: Liver Microsome Stability Assay (mouse). Conditions: mouse liver microsomes, with NADPH, 1.0 uM compound.
Experimental: as §1
Data set [4] in a line: Liver Microsome Stability Assay (human). Conditions: human liver microsomes, with NADPH, 1.0 uM compound.
Experimental: as §1
Data set [5] has as its system multiple myeloma cell line NCI-H929. The data set can be described thus: H929 Cell Viability Assay. Particulars: Homo sapiens, NCI-H929, 48 h, NCI-H929 cells, Celltiter-Glo. It counts as cell-based, human. In outline: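 NCI-H929 cells in RPMI 1640 with 10% FBS were treated with compound dilutions for 48 h at 37° C, 5% CO2. Viability was read by CellTiter-Glo luminescence. Undefined stereocentres denote stereoisomer mixtures.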

For data set [6], the system named is TNFα-FL/Gaussia Luciferase. The data set can be described thus: Dox Induced TNFα-FL-Gluc Assay. Particulars: for IC50: 24 hr Dox induction, 293FRT/TO cells, read-out: 24 hr Dox Inducible TNFaFLGluc 293FRT/TO: Mean IC50; for 24 hr Dox Inducible TNFaFLGluc 293FRT/TO: TNF/PD1: ratio of TNFaFLGluc IC50 to PD1ssGluc IC50. The class given is cell-based. Put shortly: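 Flp-In 293 T-REx cells stably carrying doxycycline-inducible full-length TNFα (aa 1-233) fused to Gaussia luciferase. Plated the day before, then treated with compound dilutions in doxycycline-containing medium at 37° C, 5% CO2.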

In data set [7] the test system is PD1-ss+10aa/Gaussia Luciferase. The data set can be described thus: Dox-Induced PD1-ss-Gluc Assay. It counts as cell-based. Conditions: 24 hr Dox induction, 293FRT/TO cells, read-out: 24 hr Dox Inducible PD1ssGluc 293FRT/TO: Mean IC50. Put shortly:
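The cell line was made by transfecting Flp-In 293 T-REx cells with a PD1 signal sequence+10aa–Gaussia luciferase fusion under T-REx control and selecting with hygromycin and blasticidin. Cells were seeded, and next day compound plus doxycycline was added at 37 °C, 5% CO2.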

A short description of data set [8]: Liver Microsome Stability Assay (rat). Particulars: rat liver microsomes, with NADPH, 1.0 uM compound.
Experimental: as §1
Data set [9] relates to IL-2-FL/Gaussia Luciferase. The data set is described as follows: Dox Induced IL2-FL-Gluc Assay. It counts as cell-based. Conditions: for IC50: 24 hr Dox induction, 293FRT/TO cells, read-out: 24 hr Dox Inducible IL2FLGluc 293FRT/TO: Mean IC50; for 24 hr Dox Inducible IL2FLGluc 293FRT/TO: IL2/PD1: ratio of IL2FLGluc IC50 to PD1ssGluc IC50. Put shortly: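 Stable Flp-In 293 T-REx cells carrying doxycycline-inducible full-length IL-2 (aa 1-153) fused to Gaussia luciferase, plated the day before assay. Compound dilutions added in medium containing doxycycline, incubated at 37 °C, 5% CO2. Undefined stereocentres mean data refer to stereoisomer mixtures.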

Data set [10] has as its system HER3-ss+4aa/Gaussia Luciferase. The data set can be described thus: Dox-Induced Her3-ss-Gluc Assay. Particulars: 24 hr Dox induction, 293FRT/TO cells, read-out: 24 hr Dox Inducible Her3(ss + 4)Gluc 293FRT/TO: Mean IC50. The class given is cell-based. Put shortly:
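Stable Flp-In 293 T-REx cells carried a doxycycline-inducible HER3 signal sequence (+4 aa) fused to Gaussia luciferase. Cells were plated the day before the assay. Compound dilutions in DMSO/media containing doxycycline were then added, and plates were incubated at 37 °C, 5% CO2.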

The mark [11] stands for this setting: '<=>' given where both are I.A.

Like-named read-outs stand apart in the source and are kept apart here.

From patent US20230286973A1, “PROTEIN SECRETION INHIBITORS” (KEZAR LIFE SCIENCES, priority 2020, published 2023) come the findings set out here.

Take `CC(CC#N)n1cnc(/C=C/c2csc(NC(=O)c3cccn3Cc3ccnc(F)c3)n2)c1` (stereo not drawn) [Compound B110, (E)-N-(4-(2-(1-(1-cyanopropan-2-yl)-1H-imidazol-4-yl)vinyl)thiazol-2-yl)-1-((2-fluoropyridin-4-yl)methyl)-1H-pyrrole-2-carboxamide]: the EC50 in data set [1] and in data set [5] was > 25 µM throughout. Moreover, in [2], the “Liver Microsome Stability (Multiple Species): Monkey - % Remaining after 30 min w/NADPH” value worked out at 0.51%. The “Liver Microsome Stability (Multiple Species): Mouse - % Remaining after 30 min w/NADPH” value in data set [3] worked out at 44.9%. Besides, the “Liver Microsome Stability (Multiple Species): Human - % Remaining after 30 min w/NADPH” value in data set [4] came to 0.38%. For the same compound, the IC50 was > 25 µM in [6], 2.21 µM in [7], > 25 µM in data set [9] and > 25 µM in data set [10]. Also, the “24 hr Dox Inducible TNFaFLGluc 293FRT/TO: TNF/PD1” value in [6] is recorded as >11.3. The “Liver Microsome Stability (Multiple Species): Rat - % Remaining after 30 min w/NADPH” value in [8] is 32.4%. For the same compound, the “24 hr Dox Inducible IL2FLGluc 293FRT/TO: IL2/PD1” value in [9] is on record as >11.

For the compound `CCC(CC#N)Cn1cccc1C(=O)Nc1nc([C@H]2CCCN2c2ccccc2)cs1` (stereo partly drawn) [Compound C113, 1-(2-(cyanomethyl)butyl)-N-(4-((R)-1-phenylpyrrolidin-2-yl)thiazol-2-yl)-1H-pyrrole-2-carboxamide], the results for the EC50 in [1] and in data set [5] were > 25 µM and 22.8 µM, respectively. Moreover, in data set [2], the “Liver Microsome Stability (Multiple Species): Monkey - % Remaining after 30 min w/NADPH” value worked out at 3.66%. In addition, in [3], the “Liver Microsome Stability (Multiple Species): Mouse - % Remaining after 30 min w/NADPH” value came to 5.06%. Also, the “Liver Microsome Stability (Multiple Species): Human - % Remaining after 30 min w/NADPH” value in data set [4] stood at 14.9%. Besides, the IC50 was 16.3 µM in data set [6] (mean), 0.879 µM in [7] (mean), 1.8 µM in data set [9] (mean) and 1.33 µM in data set [10] (mean). For the same compound, in [6] (setting [11]), the “24 hr Dox Inducible TNFaFLGluc 293FRT/TO: TNF/PD1” value was determined as 18.6. In data set [8], the “Liver Microsome Stability (Multiple Species): Rat - % Remaining after 30 min w/NADPH” value is 14.8%. In addition, the “24 hr Dox Inducible IL2FLGluc 293FRT/TO: IL2/PD1” value in [9] (setting [11]) stood at 2.

As for `Cc1ccc(S(=O)(=O)N2CCC[C@@H]2c2csc(NC(=O)c3cccn3Cc3ccncc3)n2)cc1` [Compound E14, (R)-1-(pyridin-4-ylmethyl)-N-(4-(1-tosylpyrrolidin-2-yl)thiazol-2-yl)-1H-pyrrole-2-carboxamide], the EC50 in [1] and in [5] was > 25 µM each time. Moreover, the “Liver Microsome Stability (Multiple Species): Monkey - % Remaining after 30 min w/NADPH” value in [2] is on record as 0.11%. For the same compound, the “Liver Microsome Stability (Multiple Species): Mouse - % Remaining after 30 min w/NADPH” value in data set [3] stood at 0.1%. The “Liver Microsome Stability (Multiple Species): Human - % Remaining after 30 min w/NADPH” value in data set [4] is given as 0.2%. The IC50 in data set [6] (mean) is > 25 µM; in [7] (mean), 4.24 µM; in data set [9] (mean) it was 6.62 µM; in data set [10] (mean), 20.7 µM. Moreover, in [6] (setting [11]), the “24 hr Dox Inducible TNFaFLGluc 293FRT/TO: TNF/PD1” value is given as >5.90. In data set [8], the “Liver Microsome Stability (Multiple Species): Rat - % Remaining after 30 min w/NADPH” value is listed as 0.11%. Besides, in [9] (setting [11]), the “24 hr Dox Inducible IL2FLGluc 293FRT/TO: IL2/PD1” value was 1.6.

Turning to `CNC(=O)N1CCC(Oc2ccc(N3CCC[C@@H]3c3csc(NC(=O)c4cccn4Cc4ccnc(F)c4)n3)cc2)CC1` [Compound A136, (R)-4-(4-(2-(2-(1-((2-fluoropyridin-4-yl)methyl)-1H-pyrrole-2-carboxamido)thiazol-4-yl)pyrrolidin-1-yl)phenoxy)-N-methylpiperidine-1-carboxamide], the values for the concentration giving a half-maximal response (EC50) in data set [1] and in data set [5] were > 25 µM and 2.41 µM, respectively. The “Liver Microsome Stability (Multiple Species): Monkey - % Remaining after 30 min w/NADPH” value in data set [2] came to 0.44%. In addition, the “Liver Microsome Stability (Multiple Species): Mouse - % Remaining after 30 min w/NADPH” value in data set [3] came to 2.63%. Besides, the “Liver Microsome Stability (Multiple Species): Human - % Remaining after 30 min w/NADPH” value in data set [4] worked out at 15.6%. The IC50 in data set [6] turned out to be 1.01 µM; in data set [7], 0.0596 µM; in data set [9] it was 0.186 µM; in data set [10], 0.0867 µM. Further, the “24 hr Dox Inducible TNFaFLGluc 293FRT/TO: TNF/PD1” value in data set [6] was 16.9. Besides, the “Liver Microsome Stability (Multiple Species): Rat - % Remaining after 30 min w/NADPH” value in data set [8] was 15.7%. Besides, in data set [9], the “24 hr Dox Inducible IL2FLGluc 293FRT/TO: IL2/PD1” value turned out to be 3.1.

For the compound `O=C(Nc1nc([C@H]2CCCN2c2ccc([N+](=O)[O-])cc2)cs1)c1cccn1Cc1ccncc1` [Compound A27, (R)-N-(4-(1-(4-nitrophenyl)pyrrolidin-2-yl)thiazol-2-yl)-1-(pyridin-4-ylmethyl)-1H-pyrrole-2-carboxamide], the EC50 was > 25 µM in data set [1] and 5.79 µM in [5]. The “Liver Microsome Stability (Multiple Species): Monkey - % Remaining after 30 min w/NADPH” value in [2] amounted to 0.51%. The “Liver Microsome Stability (Multiple Species): Mouse - % Remaining after 30 min w/NADPH” value in data set [3] is 6.54%. Moreover, the “Liver Microsome Stability (Multiple Species): Human - % Remaining after 30 min w/NADPH” value in data set [4] is listed as 1.61%. Besides, the IC50 in data set [6] worked out at 1.1 µM; in data set [7], 0.0579 µM; in [9], 0.144 µM; in data set [10], 0.109 µM. Further, the “24 hr Dox Inducible TNFaFLGluc 293FRT/TO: TNF/PD1” value in data set [6] is recorded as 19.1. Moreover, the “Liver Microsome Stability (Multiple Species): Rat - % Remaining after 30 min w/NADPH” value in [8] is 0.33%. The “24 hr Dox Inducible IL2FLGluc 293FRT/TO: IL2/PD1” value in data set [9] is given as 2.5.

As for `CC(=O)N1CCC(Oc2ccc(N3CCC[C@@H]3c3csc(NC(=O)c4cccn4Cc4ccnc(F)c4)n3)cc2)C1` (stereo partly drawn) [Compound A79, N-(4-((2R)-1-(4-((1-acetylpyrrolidin-3-yl)oxy)phenyl)pyrrolidin-2-yl)thiazol-2-yl)-1-((2-fluoropyridin-4-yl)methyl)-1H-pyrrole-2-carboxamide], the EC50 in [1] was > 25 µM; in data set [5], 0.345 µM. In [2], the “Liver Microsome Stability (Multiple Species): Monkey - % Remaining after 30 min w/NADPH” value came to 0.78%. In addition, in data set [3], the “Liver Microsome Stability (Multiple Species): Mouse - % Remaining after 30 min w/NADPH” value amounted to 5.88%. The “Liver Microsome Stability (Multiple Species): Human - % Remaining after 30 min w/NADPH” value in data set [4] is 5.48%. In addition, the IC50 in data set [6] came out at 0.171 µM; in data set [7], 0.0108 µM; in data set [9], 0.0297 µM; in [10] it was 0.0232 µM. Further, the “24 hr Dox Inducible TNFaFLGluc 293FRT/TO: TNF/PD1” value in [6] is recorded as 15.9. Also, the “Liver Microsome Stability (Multiple Species): Rat - % Remaining after 30 min w/NADPH” value in data set [8] is 37.7%. Further, in data set [9], the “24 hr Dox Inducible IL2FLGluc 293FRT/TO: IL2/PD1” value is listed as 2.8.

Consider `O=C(Nc1nc([C@H]2CCCN2c2ccncc2)cs1)c1cccn1Cc1ccncc1` [Compound E48, (R)-N-(4-(1-(pyridin-4-yl)pyrrolidin-2-yl)thiazol-2-yl)-1-(pyridin-4-ylmethyl)-1H-pyrrole-2-carboxamide], for which the EC50 in data set [1] and in data set [5] was > 25 µM each time. For the same compound, in data set [2], the “Liver Microsome Stability (Multiple Species): Monkey - % Remaining after 30 min w/NADPH” value is 0.12%. For the same compound, the “Liver Microsome Stability (Multiple Species): Mouse - % Remaining after 30 min w/NADPH” value in [3] came to 2.74%. The “Liver Microsome Stability (Multiple Species): Human - % Remaining after 30 min w/NADPH” value in data set [4] was found to be 0.93%. Moreover, the IC50 in [6] (mean) was > 25 µM; in [7] (mean) it was 7.89 µM; in data set [9] (mean), 7.83 µM; in data set [10] (mean), 13.5 µM. Moreover, in [6] (setting [11]), the “24 hr Dox Inducible TNFaFLGluc 293FRT/TO: TNF/PD1” value is >3.17. The “Liver Microsome Stability (Multiple Species): Rat - % Remaining after 30 min w/NADPH” value in data set [8] is reported as 0.45%. For the same compound, the “24 hr Dox Inducible IL2FLGluc 293FRT/TO: IL2/PD1” value in [9] (setting [11]) is 0.99.

What is called EC50 is the concentration at which the effect is half-maximal.
